# Starred links: 1 amine or outer side, 2 acyl side, 3 side chain; linkers in the order of their positions; H or OH if unused. Non-standard residues stand in square brackets, D forms with d. Residues, ends and D or L forms follow the SMILES beside them. Groups on a side chain read outwards from the residue. N(2-Aminoethyl)Gly = O=C(CN(CCN[*:3])[*:1])[*:2]; NBuGly = CCCCNCC(=O)O; Aoc = NCCCCCCCC(=O)O; AEA = NCCOCC(=O)O; Ava = NCCCCC(=O)O; βAla = NCCC(=O)O
# Columns and labels:
# Conditions in all cases: 24 h
# C. albicans = system: C. albicans
# C. glabrata = system: C. glabrata
# C. parapsilosis = system: C. parapsilosis
# C. tropicalis = system: C. tropicalis
# C. dubliniensis = system: C. dubliniensis
SMILES,MIC C. albicans (C. albicans) [µg/mL],MIC C. glabrata (C. glabrata) [µg/mL],MIC C. parapsilosis (C. parapsilosis) [µg/mL],MIC C. tropicalis (C. tropicalis) [µg/mL],MIC C. dubliniensis (C. dubliniensis) [µg/mL]
"N=C(N)NCCC[C@H](NC(=O)[C@@H](CCCNC(=N)N)NC(=O)[C@H](CCCNC(=N)N)NC(=O)[C@@H](CCCNC(=N)N)NC(=O)CCNC(=O)[C@H](CCCNC(=N)N)NC(=O)[C@@H](CCCNC(=N)N)NC(=O)[C@H](CCCNC(=N)N)NC(=O)[C@@H](CCCNC(=N)N)NC(=O)CCNC(=O)[C@@H](CCCNC(=N)N)NC(=O)[C@H](CCCNC(=N)N)NC(=O)[C@@H](CCCNC(=N)N)NC(=O)CCNC(=O)[C@H](CCCNC(=N)N)NC(=O)[C@H](CCCNC(=N)N)NC(=O)[C@@H](N)CCCNC(=N)N)C(N)=O [SEQ ID NO: 9, RRR-(Apr)-rRr-(Apr)-rRrR-(Apr)-rRrR-NH2] (H-RRR[βAla][dR]R[dR][βAla][dR]R[dR]R[βAla][dR]R[dR]R-NH2)",0.5,2,0.5,0.5,0.5
"N=C(N)NCCC[C@@H](N)C(=O)N[C@@H](CCCNC(=N)N)C(=O)N[C@H](CCCNC(=N)N)C(=O)NCCC(=O)N[C@@H](CCCNC(=N)N)C(=O)N[C@@H](CCCNC(=N)N)C(=O)N[C@@H](CCCNC(=N)N)C(=O)NCCC(=O)N[C@H](CCCNC(=N)N)C(=O)N[C@@H](CCCNC(=N)N)C(=O)N[C@H](CCCNC(=N)N)C(=O)N[C@@H](CCCNC(=N)N)C(=O)NCCC(=O)N[C@H](CCCNC(=N)N)C(=O)N[C@@H](CCCNC(=N)N)C(=O)N[C@H](CCCNC(=N)N)C(=O)N[C@@H](CCCNC(=N)N)C(N)=O [SEQ ID NO: 10, rRr-(Apr)-RRR-(Apr)-rRrR-(Apr)-rRrR-NH2] (H-[dR]R[dR][βAla]RRR[βAla][dR]R[dR]R[βAla][dR]R[dR]R-NH2)",0.5,2,0.5,0.5,0.5
"N=C(N)NCCC[C@@H](N)C(=O)N[C@@H](CCCNC(=N)N)C(=O)N[C@H](CCCNC(=N)N)C(=O)NCCC(=O)N[C@H](CCCNC(=N)N)C(=O)N[C@@H](CCCNC(=N)N)C(=O)N[C@H](CCCNC(=N)N)C(=O)NCCC(=O)N[C@@H](CCCNC(=N)N)C(=O)N[C@@H](CCCNC(=N)N)C(=O)N[C@@H](CCCNC(=N)N)C(=O)N[C@@H](CCCNC(=N)N)C(=O)NCCC(=O)N[C@H](CCCNC(=N)N)C(=O)N[C@@H](CCCNC(=N)N)C(=O)N[C@H](CCCNC(=N)N)C(=O)N[C@@H](CCCNC(=N)N)C(N)=O [SEQ ID NO: 11, rRr-(Apr)-rRr-(Apr)-RRRR-(Apr)-rRrR-NH2] (H-[dR]R[dR][βAla][dR]R[dR][βAla]RRRR[βAla][dR]R[dR]R-NH2)",1,>32,0.5,2,0.5
"CCCCN(CC(=O)N[C@H](CCCNC(=N)N)C(=O)N[C@@H](CCCNC(=N)N)C(=O)N(CCCC)CC(=O)N[C@H](CCCNC(=N)N)C(=O)N[C@@H](CCCNC(=N)N)C(=O)N[C@H](CCCNC(=N)N)C(=O)N(CCCC)CC(=O)N[C@H](CCCNC(=N)N)C(=O)N[C@@H](CCCNC(=N)N)C(=O)N[C@H](CCCNC(=N)N)C(N)=O)C(=O)[C@H](CCCNC(=N)N)NC(=O)[C@H](N)CCCNC(=N)N [SEQ ID NO: 36, rR-(ButylGly)-rR-(ButylGly)-rRr-(ButylGly)-rRr-NH2] (H-[dR]R[NBuGly][dR]R[NBuGly][dR]R[dR][NBuGly][dR]R[dR]-NH2)",0.5,4,16,2,2
"N=C(N)NCCC[C@@H](N)C(=O)N[C@@H](CCCNC(=N)N)C(=O)N[C@H](CCCNC(=N)N)C(=O)NCCCCC(=O)N[C@H](CCCNC(=N)N)C(=O)N[C@@H](CCCNC(=N)N)C(=O)N[C@H](CCCNC(=N)N)C(=O)NCCNCC(=O)N[C@H](CCCNC(=N)N)C(=O)N[C@@H](CCCNC(=N)N)C(=O)N[C@H](CCCNC(=N)N)C(=O)N[C@@H](CCCNC(=N)N)C(=O)NCCCCC(=O)N[C@H](CCCNC(=N)N)C(=O)N[C@@H](CCCNC(=N)N)C(=O)N[C@H](CCCNC(=N)N)C(=O)N[C@@H](CCCNC(=N)N)C(N)=O [SEQ ID NO: 42, rRr-(Ava)-rRr-(Aeg)-rRrR-(Ava)-rRrR-NH2]",1,1,0.5,0.5,0.5

# Further lines, results first:
MIC C. albicans (C. albicans) [µg/mL],MIC C. glabrata (C. glabrata) [µg/mL],MIC C. parapsilosis (C. parapsilosis) [µg/mL],MIC C. tropicalis (C. tropicalis) [µg/mL],MIC C. dubliniensis (C. dubliniensis) [µg/mL],SMILES
0.5,>32,0.5,1,0.5,"N=C(N)NCCC[C@@H](N)C(=O)N[C@@H](CCCNC(=N)N)C(=O)N[C@H](CCCNC(=N)N)C(=O)NCCC(=O)N[C@H](CCCNC(=N)N)C(=O)N[C@@H](CCCNC(=N)N)C(=O)N[C@H](CCCNC(=N)N)C(=O)NCCC(=O)N[C@H](CCCNC(=N)N)C(=O)N[C@@H](CCCNC(=N)N)C(=O)N[C@H](CCCNC(=N)N)C(=O)N[C@@H](CCCNC(=N)N)C(=O)NCCC(=O)N[C@@H](CCCNC(=N)N)C(=O)N[C@@H](CCCNC(=N)N)C(=O)N[C@@H](CCCNC(=N)N)C(=O)N[C@@H](CCCNC(=N)N)C(N)=O [SEQ ID NO: 12, rRr-(Apr)-rRr-(Apr)-rRrR-(Apr)-RRRR-NH2] (H-[dR]R[dR][βAla][dR]R[dR][βAla][dR]R[dR]R[βAla]RRRR-NH2)"
1,1,0.5,1,0.5,"N=C(N)NCCC[C@@H](N)C(=O)N[C@@H](CCCNC(=N)N)C(=O)N[C@H](CCCNC(=N)N)C(=O)NCCCCCCCC(=O)N[C@H](CCCNC(=N)N)C(=O)N[C@@H](CCCNC(=N)N)C(=O)N[C@H](CCCNC(=N)N)C(=O)NCCCCCCCC(=O)N[C@H](CCCNC(=N)N)C(=O)N[C@@H](CCCNC(=N)N)C(=O)N[C@H](CCCNC(=N)N)C(=O)N[C@@H](CCCNC(=N)N)C(=O)NCCCCCCCC(=O)N[C@H](CCCNC(=N)N)C(=O)N[C@@H](CCCNC(=N)N)C(=O)N[C@H](CCCNC(=N)N)C(=O)N[C@@H](CCCNC(=N)N)C(=O)O [SEQ ID NO: 30, rRr-(Aoa)-rRr-(Aoa)-rRrR-(Aoa)-rRrR] (H-[dR]R[dR][Aoc][dR]R[dR][Aoc][dR]R[dR]R[Aoc][dR]R[dR]R-OH)"
1,2,1,1,0.5,"N=C(N)NCCC[C@@H](N)C(=O)N[C@@H](CCCNC(=N)N)C(=O)N[C@H](CCCNC(=N)N)C(=O)NCCNCC(=O)N[C@H](CCCNC(=N)N)C(=O)N[C@@H](CCCNC(=N)N)C(=O)N[C@H](CCCNC(=N)N)C(=O)NCCCCC(=O)N[C@H](CCCNC(=N)N)C(=O)N[C@@H](CCCNC(=N)N)C(=O)N[C@H](CCCNC(=N)N)C(=O)N[C@@H](CCCNC(=N)N)C(=O)NCCCCC(=O)N[C@H](CCCNC(=N)N)C(=O)N[C@@H](CCCNC(=N)N)C(=O)N[C@H](CCCNC(=N)N)C(=O)N[C@@H](CCCNC(=N)N)C(N)=O [SEQ ID NO: 41, rRr-(Aeg)-rRr-(Ava)-rRrR-(Ava)-rRrR-NH2] (H-[N(2-Aminoethyl)Gly]([dR-Arg-dR])[dR]R[dR][Ava][dR]R[dR]R[Ava][dR]R[dR]R-NH2)"
1,1,0.5,0.5,0.5,"N=C(N)NCCC[C@@H](N)C(=O)N[C@@H](CCCNC(=N)N)C(=O)N[C@H](CCCNC(=N)N)C(=O)NCCCCC(=O)N[C@H](CCCNC(=N)N)C(=O)N[C@@H](CCCNC(=N)N)C(=O)N[C@H](CCCNC(=N)N)C(=O)NCCCCC(=O)N[C@H](CCCNC(=N)N)C(=O)N[C@@H](CCCNC(=N)N)C(=O)N[C@H](CCCNC(=N)N)C(=O)N[C@@H](CCCNC(=N)N)C(=O)NCCNCC(=O)N[C@H](CCCNC(=N)N)C(=O)N[C@@H](CCCNC(=N)N)C(=O)N[C@H](CCCNC(=N)N)C(=O)N[C@@H](CCCNC(=N)N)C(N)=O [SEQ ID NO: 43, rRr-(Ava)-rRr-(Ava)-rRrR-(Aeg)-rRrR-NH2]"
1,1,0.5,0.5,0.5,"N=C(N)NCCC[C@@H](N)C(=O)N[C@@H](CCCNC(=N)N)C(=O)N[C@H](CCCNC(=N)N)C(=O)NCCOCC(=O)N[C@H](CCCNC(=N)N)C(=O)N[C@@H](CCCNC(=N)N)C(=O)N[C@H](CCCNC(=N)N)C(=O)NCCCCC(=O)N[C@H](CCCNC(=N)N)C(=O)N[C@@H](CCCNC(=N)N)C(=O)N[C@H](CCCNC(=N)N)C(=O)N[C@@H](CCCNC(=N)N)C(=O)NCCCCC(=O)N[C@H](CCCNC(=N)N)C(=O)N[C@@H](CCCNC(=N)N)C(=O)N[C@H](CCCNC(=N)N)C(=O)N[C@@H](CCCNC(=N)N)C(N)=O [SEQ ID NO: 47, rRr-(Aea)-rRr-(Ava)-rRrR-(Ava)-rRrR-NH2] (H-[dR]R[dR][AEA][dR]R[dR][Ava][dR]R[dR]R[Ava][dR]R[dR]R-NH2)"
0.5,1,0.5,0.5,0.5,"N=C(N)NCCC[C@@H](N)C(=O)N[C@@H](CCCNC(=N)N)C(=O)N[C@H](CCCNC(=N)N)C(=O)NCCCCC(=O)N[C@H](CCCNC(=N)N)C(=O)N[C@@H](CCCNC(=N)N)C(=O)N[C@H](CCCNC(=N)N)C(=O)NCCOCC(=O)N[C@H](CCCNC(=N)N)C(=O)N[C@@H](CCCNC(=N)N)C(=O)N[C@H](CCCNC(=N)N)C(=O)N[C@@H](CCCNC(=N)N)C(=O)NCCCCC(=O)N[C@H](CCCNC(=N)N)C(=O)N[C@@H](CCCNC(=N)N)C(=O)N[C@H](CCCNC(=N)N)C(=O)N[C@@H](CCCNC(=N)N)C(N)=O [SEQ ID NO: 48, rRr-(Ava)-rRr-(Aea)-rRrR-(Ava)-rRrR-NH2] (H-[dR]R[dR][Ava][dR]R[dR][AEA][dR]R[dR]R[Ava][dR]R[dR]R-NH2)"

# Reference: patent US20240360177A1, “PEPTIDES WITH ANTIMICROBIAL ACTIVITIES” (priority 2021, published 2024)
